# Measured values published in the supplement of paper PMC10883282.
# ± gives the standard deviation of the averaged measurements.
# System: SYO-1
# Experiment: relative viability vs DMSO control (72 h) (fraction); higher = more viable cells
# In short: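 After seeding at densities set for 80–90% confluence in 384-well plates, sarcoma cell lines waited 24 h before 2.5 µl of serially diluted compound was added. Source plates held 10 mM down to 0.0002 mM. Plates were incubated 72 h at 37 °C with 5% CO2, with 0.1% DMSO vehicle and a 5 µM positive control, and relative viability was taken from ATPLite as percent growth averaged over up to triplicate wells, with 1 set as full and 0 as none.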
Structure (SMILES),relative viability (0.00017 µM),relative viability (0.00051 µM),relative viability (0.00152 µM),relative viability (0.00457 µM),relative viability (0.01372 µM),relative viability (0.04115 µM),relative viability (0.1235 µM),relative viability (0.3704 µM),relative viability (1.111 µM),relative viability (3.333 µM),relative viability (10 µM)
CNC(=O)c1ccc(-c2cnc3ncc(Cc4ccc5ncccc5c4)n3n2)cc1F [Capmatinib],0.956 ± 0.039,0.962 ± 0.044,0.966 ± 0.028,0.968 ± 0.015,0.97 ± 0.03,0.961 ± 0.042,0.97 ± 0.033,0.967 ± 0.026,0.994 ± 0.023,1.03 ± 0.03,1.01 ± 0.067
CCN1CCN(Cc2ccc(Nc3ncc(F)c(-c4cc(F)c5nc(C)n(C(C)C)c5c4)n3)nc2)CC1 [Abemaciclib],0.953 ± 0.047,0.936 ± 0.043,0.925 ± 0.029,0.905 ± 0.051,0.849 ± 0.059,0.775 ± 0.064,0.657 ± 0.051,0.519 ± 0.039,0.461 ± 0.015,0.353 ± 0.059,0.0228 ± 0.055
C=CC(=O)N1CCC[C@@H](n2nc(-c3ccc(Oc4ccccc4)cc3)c3c(N)ncnc32)C1 [Ibrutinib],0.992 ± 0.034,0.959 ± 0.047,0.923 ± 0.036,0.933 ± 0.042,0.923 ± 0.046,0.892 ± 0.045,0.868 ± 0.041,0.861 ± 0.026,0.759 ± 0.055,0.557 ± 0.027,0.39 ± 0.02
Cn1cnc2c(F)c(Nc3ccc(Br)cc3F)c(C(=O)NOCCO)cc21 [Binimetinib],1.04 ± 0.027,1.05 ± 0.02,1.01 ± 0.064,1.01 ± 0.038,0.983 ± 0.024,0.96 ± 0.042,0.936 ± 0.038,0.933 ± 0.019,0.93 ± 0.069,0.889 ± 0.042,0.86 ± 0.059
CC1(C)CNc2cc(NC(=O)c3cccnc3NCc3ccncc3)ccc21 [Motesanib],0.962 ± 0.012,0.979 ± 0.043,0.996 ± 0.05,0.974 ± 0.043,0.973 ± 0.025,0.914 ± 0.036,0.866 ± 0.029,0.777 ± 0.054,0.724 ± 0.021,0.648 ± 0.016,0.494 ± 0.019
C[C@@H](c1ccc2nccn2c1)n1nnc2ncc(-c3cnn(C)c3)nc21 [Volitinib],0.96 ± 0.038,0.999 ± 0.065,1 ± 0.025,0.979 ± 0.03,0.985 ± 0.024,0.992 ± 0.032,1.01 ± 0.087,0.98 ± 0.051,0.996 ± 0.058,0.977 ± 0.085,1.03 ± 0.047
Cc1ccc(NC(=O)c2ccc(CN3CCN(C)CC3)cc2)cc1Nc1nc(-c2cccnc2)cs1 [Masitinib],1.04 ± 0.023,1.02 ± 0.02,1.01 ± 0.027,1.01 ± 0.026,0.974 ± 0.026,0.916 ± 0.039,0.801 ± 0.021,0.676 ± 0.032,0.553 ± 0.038,0.242 ± 0.033,-0.0235 ± 0.0061
C=CC(=O)Nc1cccc(Oc2nc(Nc3ccc(N4CCN(C)CC4)cc3)nc3ccsc23)c1 [Olmutinib],0.957 ± 0.02,0.985 ± 0.043,0.955 ± 0.018,0.952 ± 0.01,0.953 ± 0.021,0.9712 ± 0.0081,0.972 ± 0.037,0.933 ± 0.017,0.908 ± 0.045,0.698 ± 0.044,-0.00933 ± 0.0049
CC(C)(C)c1cc(NC(=O)Nc2ccc(-c3cn4c(n3)sc3cc(OCCN5CCOCC5)ccc34)cc2)no1 [Quizartinib],0.978 ± 0.017,0.963 ± 0.02,0.973 ± 0.044,0.943 ± 0.035,0.935 ± 0.034,0.9229 ± 0.0014,0.873 ± 0.015,0.715 ± 0.043,0.67 ± 0.046,0.646 ± 0.034,0.627 ± 0.044
CC(C)NC(=O)C1CCC(n2c(NC(=O)c3ccc(F)cc3)nc3ccc(CN4CCC(C(C)(C)O)CC4)cc32)CC1 (stereo not given) [Belizatinib],0.993 ± 0.062,0.983 ± 0.019,0.983 ± 0.055,1 ± 0.069,0.96 ± 0.03,0.967 ± 0.044,0.902 ± 0.052,0.798 ± 0.046,0.639 ± 0.046,0.336 ± 0.018,0.155 ± 0.03
Cc1ccc(F)c(NC(=O)Nc2ccc(-c3cccc4[nH]nc(N)c34)cc2)c1 [Linifanib],0.98 ± 0.036,0.968 ± 0.087,0.957 ± 0.066,0.941 ± 0.035,0.906 ± 0.049,0.845 ± 0.085,0.76 ± 0.13,0.751 ± 0.093,0.769 ± 0.016,0.753 ± 0.055,0.711 ± 0.031
Cc1nc(NC(=O)N2CCC[C@H]2C(N)=O)sc1-c1ccnc(C(C)(C)C(F)(F)F)c1 [Alpelisib],0.975 ± 0.071,0.944 ± 0.068,0.93 ± 0.049,0.919 ± 0.031,0.85 ± 0.099,0.805 ± 0.095,0.735 ± 0.1,0.68 ± 0.11,0.633 ± 0.063,0.6 ± 0.019,0.5521 ± 0.0025
C[C@]1(O)C[C@@H](c2nc(-c3ccc4ccc(-c5ccccc5)nc4c3)c3c(N)nccn32)C1 [Linsitinib],1.01 ± 0.043,1.01 ± 0.013,0.97 ± 0.046,0.969 ± 0.018,0.922 ± 0.035,0.87 ± 0.083,0.857 ± 0.035,0.823 ± 0.012,0.833 ± 0.04,0.734 ± 0.025,0.57 ± 0.028
C=CC(=O)N1CCC([C@@H]2CCNc3c(C(N)=O)c(-c4ccc(Oc5ccccc5)cc4)nn32)CC1 [Zanubrutinib],0.982 ± 0.032,0.978 ± 0.025,0.976 ± 0.018,0.979 ± 0.018,0.984 ± 0.015,0.9556 ± 0.0067,0.967 ± 0.018,0.959 ± 0.06,0.97 ± 0.061,0.884 ± 0.076,0.763 ± 0.053
CCc1cc2c(cc1N1CCC(N3CCOCC3)CC1)C(C)(C)c1[nH]c3cc(C#N)ccc3c1C2=O [Alectinib],0.979 ± 0.024,0.983 ± 0.032,0.982 ± 0.058,0.975 ± 0.059,0.99 ± 0.072,0.98 ± 0.031,0.972 ± 0.081,0.986 ± 0.051,1 ± 0.05,0.984 ± 0.045,1.03 ± 0.034
